Data set [1] deals with Yeast + HsCIpP. Kind of data set: Yeast growth inhibition screen, yeast expressing human ClpP. It counts as cell-based. To be noted: Saccharomyces cerevisiae, 24 h, read-out: Yeast + HsCIpP GI50. From the text: This technique allows to directionally assemble several DNA fragments into one single DNA piece. It is based on plasmid libraries that share the same DNA backbone but differ in the type of the insert. The assembly of the final cassette is based on the "Golden Gate Cloning" method. Human CLPP gene sequence (codon-optimized for yeast translation) was amplified with well-designed primers from a plasmid kindly provided by Dr. Michael David Tyers (University of Montreal). Once amplified, a MoClo reaction was performed to obtain the final integrative cassette. This cassette was composed as follows: • Type 1: ConLS 3' connector. • Type 2: TDH3 gene promoter (strong and constitutive expression). • Type 3: Amplified human CLPP gene. • Type 4: ADH1 gene terminator. • Type 5: ConR1 5' connector. • Type 6: LEU2 gene as selectable marker for yeast. • Type 7: 3' HO gene homology sequence for yeast integration. • Type 8a: KanR-ColE1 sequence for bacterial amplification and antibiotic resistance. • Type 8b: 5' HO gene homology sequence for yeast integration.
Digestion patterns with several restriction enzymes were carried out to confirm the success of the MoClo system. An extra restriction enzyme reaction (Notl) was performed to linearize the DNA fragment and deplete the bacterial part.
(§1) These cells contain mutants in YRS1, YRR1, PDR1 and PDR3 genes, which are involved in polydrug and pleiotropic resistance networks.
Yeast cells were transformed with the linearized cassette and transformant colonies were selected on minimum media without leucine. Independent clones were checked by PCR and positive ones were stored at -80 °C until use.
(§2) The yeast (both HsCpIP+ and HsCIpP-) are incubated in petri dishes with YPD (Yeast extract peptone dextrose) at 25 °C overnight, after which a colony is isolated, suspended in a flask with fresh YPD and incubating again under the same conditions but with agitation. […] 100 µl of this solution was then placed into the appropriated wells of a standard 96-well plate. Stock solutions (DMSO, 10 mM) of the compounds to be tested are diluted in YPD to 2X of their final concentrations to be tested, and 100 µl added to the appropriate wells. 100 µl of YPD was added to wells designated as the negative control wells, while ONC206 (0.5 µM) was used as the positive control. Once all compounds were added to the plate, an initial T = 0 absorbance value was recorded at 600 Nm. The plate was then incubated at 25 °C with gentle shaking for 24 h. The plates can either be read at multiple time points using a TECAN Spark® Multimode Microplate Reader, or at the end of the experiment using a standard spectrophotometer.
(§3) Table 2: Growth inhibition (GI50) values for compounds of the present invention in yeast containing HsCIpP, and yeast without HsCIpP.

Data set [2] relates to Yeast - HsCIpP. The experiment in a line: Yeast growth inhibition screen, yeast without human ClpP (selectivity control). It counts as cell-based. The settings on record: Saccharomyces cerevisiae, read-out: Yeast - HsCIpP GI50. The method, then:
as §1, §2, §3

Data set [3] deals with 4T1. Kind of data set: MTT cell viability assay, 4T1. It counts as cell-based. The settings on record: Mus musculus; 4T1 cells, 48 H, MTT, average of at least two independent experiments; read-out: IC50 4T1 48 H. The method, then: This a mouse epithelial breast cancer cell line classified as being triple negative and mimics human breast cancer; stage IV.
Cell viability was assayed by measuring the mitochondrial reduction of the tetrazolium salt 3-(4,5-methyltiazol-2yl)-2,5diphenyl-tetrazolium bromide] (MTT) (Applichen; A2231,0010) [Mosmann T. J Immunol Methods. […] Oncogene. […] Cells were seeded at a density according to their exponential growth phase (normally 1000 to 5000/well). The cells were cultured at 37 °C in the dark in air containing 5% CO2. After 24h either vehicle (0.05% DMSO), or drug, was added to culture medium at the indicated concentrations (10 to 0,01microM). […] The medium was then removed, and the precipitated formazan was solubilized by the addition of DMSO (200 µL).
For orientation: Formazan colour is commonly taken as a measure of viable cells.

In data set [4] the test system is MDA-MB-231. The experiment in a line: MTT cell viability assay, MDA-MB-231. The settings on record: Homo sapiens, MDA-MB-231 cells, 72 H, average of at least two independent experiments. It counts as cell-based. The method, then: This a human breast cancer cell line derived from a metastatic site from a person.
(§4) Cell viability was assayed by measuring the mitochondrial reduction of the tetrazolium salt 3-(4,5-methyltiazol-2yl)-2,5diphenyl-tetrazolium bromide] (MTT) (Applichen; A2231,0010) [Mosmann T. J Immunol Methods. […] Oncogene. […] Cells were seeded at a density according to their exponential growth phase (normally 1000 to 5000/well). The cells were cultured at 37 °C in the dark in air containing 5% CO2. After 24h either vehicle (0.05% DMSO), or drug, was added to culture medium at the indicated concentrations (10 to 0,01microM). After another 72 h, MTT (0.3 mg/ml) was added to cells, followed by incubation for 2-4h at 37 °C in the dark. The medium was then removed, and the precipitated formazan was solubilized by the addition of DMSO (200 µL).

In data set [5] the test system is U2 OS. The experiment in a line: MTT cell viability assay, U2 OS. It counts as cell-based. The settings on record: Homo sapiens, U2OS, U2 OS cells, 72 H, average of at least two independent experiments. The method, then:
U2 OS [American Type Culture Collection (ATCC) reference number HTB-96]. This is a human bone cancer (a moderately differentiated sarcoma) cell derived from an osteosarcoma patient.
as §4

The subject of data set [6] is DU-145. The experiment in a line: MTT cell viability assay, DU-145. It counts as cell-based. The settings on record: Homo sapiens, DU-145 cells, 72 H, average of at least two independent experiments. The procedure:
This a human prostate cancer cell line derived from a metastatic site (brain) of a person.
as §4

Data set [7] deals with PANC1. Kind of data set: MTT cell viability assay, PANC1. It counts as cell-based. The settings on record: Homo sapiens, PANC-1, PANC1 cells, 72 H, average of at least two independent experiments. The method, then: This a human cancer cell line derived from the pancreas of a person.
as §4

The test system of data set [8] is 4T1 tumours. The experiment in a line: 4T1 syngeneic tumour model in immunocompetent mice. It counts as in vivo, Balb/c mice. The settings on record: 25 mg/kg PO three times per week. The procedure: 4T1 syngeneic tumours were induced in female immunocompetent Balb/c mice by inject 12500 4T1 cells (passage# <7, in PBS, 100 µL) into their left inguinal mammary fat pad. Once tumour volumes [measure using the formula V = 0.5(length x width^2)] reached […], treatment with either vehicle, or compound in vehicle, was began. Compounds were administered orally (PO) at a constant dose (typically 25 mg/kg) three times per week (Monday, Wednesday and Friday). Compounds (as ether their free base or salt) were formulated as either solutions or homogenous suspensions in a vehicle of 10% Cremaphor RH40 + 90% saline for injection. Formulations were prepared at concentrations (mg/mL) = Dose/5 (e.g. a dose of 25 mg/Kg used a formulation of 5 mg/ml). Once treatments began, tumour volumes and body weights were recorded on each treatment day. Treatments were continued until 25-28 days after first treatment day, after which the mice were sacrificed. Animals whose tumour reached […] during the experiment were also sacrificed.

Data set [9] concerns MDA-MB-231 cells. Kind of data set: cells. The settings on record: for Result / TGI50: MDA-MB-231 72 H, SRB; for Result: cytostatic or not; for TGI50: total growth inhibition concentration. The method, then:
In order to measure the cell population at the time zero (Tz) a plate of cells was stained with SRB 24 hours after seeding. The cell monolayers are fixed with cold 5% (w/v) trichloroacetic acid for 60 minutes at 4°C. The excess of trichloroacetic acid is removed by washing five times with distilled water. Sulforhodamine B (SRB) solution [50 µL at 0.4%(w/v) in 1% acetic acid] is added to each well and plates are incubated for 8 minutes at room temperature. The excess dye is removed by washing five times with 1% (v/v) acetic acid. The bound stain is subsequently solubilized with (100 µL) 10 mM trizma base and the absorbance is read on automated plate reader at a wavelength of 550 nm.
Compounds at various concentrations were added to an identical cell-seeded (non-treated) plate and incubated at 37°C (5% CO2) for an additional […]. Cells were fixed and stained following the same protocol. The measurement of the cell population after 72 hours in the presence of the drug is (Ti). Several wells in the same plate were treated with the control vehicle.
Using the absorbance measurements, time zero (Tz), control growth (C), and test growth in the present of the compound (Ti) the percentage growth inhibition is calculated as: • [(Ti-Tz)/(C-Tz)] x 100 for concentrations for which Ti >/= Tz • [(Ti-Tz)/Tz] x 100 for concentrations for which Ti <Tz
These values were determined using GraphPad software v5 (San Diego, CA).

[10] abbreviates: yeast without HsCIpP, 24 h at 25 °C, absorbance at 600 nm.

Structures are written as SMILES. Read-outs that look alike come from different tables or passages of the source.

Consider `O=C1C2CN(Cc3cccc(F)c3)CCN2CCN1Cc1cccc(Cl)c1` (stereo not drawn) [Compound 4], for which the GI50 was 210 nM in data set [1] and more than 10000 nM in data set [2] (setting [10]). Moreover, the IC50 worked out at 330 nM in data set [3]; 450 nM in data set [4]; 500 nM in [5]; 850 nM in data set [6]; 335 nM in data set [7]. In addition, the “changes in body weights” value in [8] (4T1 tumour-bearing Balb/c mice, during the experimental period) is “no significant changes”. Moreover, in data set [8] (established 4T1 tumours, female Balb/c mice, versus vehicle, p < 0.01), the Tumour growth reduced came to 50%.
Turning to `O=C1C2CN(Cc3cccc(F)c3)CCN2CCN1Cc1cccc(C(F)(F)F)c1` (stereo not drawn) [Compound 13, 8-(3-fluorobenzyl)-2-(3-(trifluoromethyl)benzyl)hexahydro-2H-pyrazinof1,2-alpyrazin-1(6H)-one], the GI50 was 40 nM in data set [1]; more than 10000 nM in [2] (setting [10]); 420 nM in [9] (Homo sapiens, MDA-MB-231, 72 h). In addition, the IC50 in [3] amounted to 170 nM; in data set [4] it was 190 nM; in data set [5], 300 nM; in data set [6] it was 250 nM; in [7], 165 nM. The CC50 in data set [9] (Homo sapiens, MDA-MB-231, 72 h, read-out: LC50) is more than 10000 nM. Also, the Result result in data set [9] is “Cytostatic”. This compound displayed a TGI50 in data set [9] of more than 10 µM.
For `O=C1C2=C(CCN(Cc3ccccc3)C2)N2CCN=C2N1Cc1ccc(F)cc1F` [ONC206, reference compound], the GI50 in [1] is 4560 nM; in [2] (24 h), more than 10000 nM; in data set [9] (Homo sapiens, MDA-MB-231, 72 h), 730 nM. Also, the 50% inhibitory concentration (IC50) in data set [3] worked out at 600 nM; in data set [4], 600 nM; in data set [5], 800 nM; in data set [6], 370 nM; in [7] it was 300 nM. In [9], the Result entry is “Cytostatic”. Further, in data set [9], the TGI50 is more than 10 µM.

Broadly, the GI50 is the concentration giving 50% growth inhibition. In general, IC50 refers to the point on the concentration scale where inhibition reaches its midpoint.
